Patent US7811609B2, “Use of metal compounds to treat gastrointestinal infections” (priority 2000, dated 2010)
“And” between values parts separate entries of the source, which are not always exact repeats. Identical values can stand only once. Like-named read-outs stand apart in the source and are kept apart here.

Legend:
[1] = system: Helicobacter pylori
Protocol: (§1) Solutions of metal salts were prepared by dilution of the metal salt, optionally together with the ligand, in ultra-high-purity water. The pH values were adjusted to 7 with concentrated sodium hydroxide. The solutions were γ irradiated for 20 to 30 minutes for sterilisation, and then diluted ten fold in the bacterial growth medium to be used.
(§2) A gradient of concentration was obtained by two fold serial dilutions of the medium. The concentrations of metals were analysed by inductively coupled plasma spectrometry. Each dilution was inoculated with the different bacteria to be tested, by multi-point inoculating on the agar media, or suspending in the broth media.
(§3) Media were incubated for Helicobacter pylori in a microaerobic atmosphere (gas jar containing a CampyGen® pack, 5% O2-10% CO2-85% N2 by volume) with constant shaking (orbital shaker, 140 rpm) at 37° C. for five days.
(§4) The presence or absence of bacterial growth was reported within the concentration gradient and the minimum concentration of complex in the medium that inhibits totally the bacterial growth (MIC) was determined. The growth on an agar plate was detected by the presence of colonies, and by turbidity in the broth media. […] Helicobacter pylori growth was also confirmed by biochemical test on the catalase, urease and oxidase activity.

[2] = system: H. pylori; details: cited from earlier work
[3] = system: Helicobacter pylori; assay: microbe, parasite or virus in culture; details: read-out: MIC of amoxycillin (no cobalt)
Protocol: as §1, §2, §3, §4

[4] = system: Helicobacter pylori; assay: MIC against Helicobacter pylori by two fold serial dilution in growth medium; assay type: cell-based
Protocol: as §1, §2
The presence or absence of bacterial growth was reported within the concentration gradient and the minimum concentration of complex in the medium that inhibits totally the bacterial growth (MIC) was determined. The growth on an agar plate was detected by the presence of colonies, and by turbidity in the broth media. The bacteria were identified by the Gram morphology test. Helicobacter pylori growth was also confirmed by biochemical test on the catalase, urease and oxidase activity.

[5] = system: Staphylococcus aureus; assay: MIC against Staphylococcus aureus; assay type: cell-based
[6] = system: Coagulase negative staphylococcus; assay: MIC against coagulase negative staphylococcus; assay type: cell-based; details: Mueller-Hinton agar with 2% horse serum and isosensitest agar with 5% horse blood; several strains
[7] = system: Enterococcus faecalis; assay: MIC against Enterococcus faecalis; assay type: cell-based
[8] = system: Enterococcus faecium; assay: MIC against Enterococcus faecium; assay type: cell-based; details: Mueller-Hinton agar with 2% horse serum and isosensitest agar with 5% horse blood; several strains
[9] = system: Pseudomonas aeruginosa; assay: MIC against Pseudomonas aeruginosa; assay type: cell-based
[10] = system: Klebsiella; assay: MIC against Klebsiella; assay type: cell-based
[11] = system: Echerichia coli; assay: MIC against Echerichia coli; assay type: cell-based
[12] = system: other bacteria; assay: MIC against other bacteria; assay type: cell-based; details: 32 mg/l = estimate limit between active and non-active metals
[13] = system: Helicobacter pylori; assay: Inhibition of Helicobacter pylori growth over time in the STH medium (FIG. 1, cfu/ml against time); assay type: cell-based; details: cobalt 2.00 ppm
Excerpt: FIG. 1 is a graph showing the inhibition of H. pylori growth by cobalt (cobaltous chloride) in the STH medium.
I50=inhibition of 50% of the Helicobacter pylori inoculated by cobaltous chloride. Concentration of cobalt in the medium was 2.00 ppm.

[14] = Tolerance study in patients with H. pylori infection; assay type: in vivo, human; details: six patients; 20 mg/day cobalt (10 mg b.d) for two weeks; oral capsules or solution
Protocol: In a tolerance study, six patients with H. pylori infection ingested a low dose of 20 mg/day cobalt, as cobalt chloride (10 mg b.d), for two weeks. […] In one patient the cobalt was taken also with a proton pump inhibitor (Lansoprazole) while the remaining 5 took cobalt alone as capsules (4 patients) or a solution (1 patient). 3 of these patients had gastritis and/or duodenitis with a duodenal ulcer also in one of these three. The other 3 had oesophagitis and/or normal stomach and duodenum.

[15] = system: E. coli; details: extrapolated from survival rates; protein broth then phosphate-buffered saline; Zhao et al 1998; cited from earlier work
[16] = system: Pseudomonas aeruginosa; details: extrapolated from survival rates; protein broth then phosphate-buffered saline; Zhao et al 1998; cited from earlier work
[17] = system: Staphylococcus (aureus or Oxford Staph); details: extrapolated from survival rates; protein broth then phosphate-buffered saline; Zhao et al 1998; cited from earlier work
[18] = Mueller-Hinton agar with 2% horse serum and isosensitest agar with 5% horse blood, several strains

In the case of `CC1(C)S[C@@H]2[C@H](NC(=O)[C@H](N)c3ccc(O)cc3)C(=O)N2[C@H]1C(=O)O` [amoxycillin, reference compound], the “growth in the medium” value ([1]; Co 0 mg/l, Ax 0.002 mg/l) is reported as “+”, the “growth in the medium” value ([1]; Co 0 mg/l, Ax 0.004 mg/l) is reported as “+” and the “growth in the medium” value ([1]; Co 0 mg/l, Ax 0.008 mg/l) is reported as “+”. For the same compound, the “growth in the medium” value ([1]; Co 0 mg/l, Ax 0.015 mg/l) was “+”, the “growth in the medium” value ([1]; Co 0 mg/l, Ax 0.03 mg/l) was “+” and the “growth in the medium” value ([1]; Co 0 mg/l, Ax 0.06 mg/l) was “−”. For the same compound, the “MIC, strains that repeatedly showed higher MIC” value ([2]; H. pylori strains lacking one penicillin-binding protein) was 0.25 µg/mL and 0.5 µg/mL, the “MIC, usual” value ([2]; H. pylori, usual strains) was at most 0.03 µg/mL and the MIC [3] was 0.06 µg/mL.
With `[Cl-].[Cl-].[Co+2]` [Co chloride, cobalt (II) chloride] the “Average Selectivity Ratio” value ([4]; (Sum of MIC values against all bacteria except H. pylori ÷ No. of MIC values) ÷ MIC value for H. pylori) was 434, the “MIC” value ([4]; STH broth, NCTC 11637 and seven clinical isolates) was 0.03 to 0.6 µg/mL and the “MIC (mg/l), median” value ([4]; STH broth, NCTC 11637 and seven clinical isolates, median) was 0.06 mg/L. For the same compound, the “Mean ratio pH 4:pH 7, first value” ([4]; Strain 1 (Chloride: against first pH 7 value)) was 0.5, the “MIC, Strain 1 (pH 4)” value ([4]; Strain 1, pH 4) was 0.015 and the “MIC, Strain 1 (pH 7)” value ([4]; Strain 1, pH 7 (first value where two are given)) was 0.03. For the same compound, the “MIC, Strain 1 (pH 7), second value” ([4]; Strain 1, pH 7, second of x/y) was 0.125, the “Mean ratio pH 4:pH 7, second value” ([4]; Strain 2 (Chloride: Strain 1 against second pH 7 value)) was 0.12 and the “MIC, H. pylori, range in brackets” value ([4]; Table 4) was “(<0.03-0.125)”. The MIC, H. pylori ([4]; Table 4, main value) was 0.06 µg/mL, the “activity against H. pylori at pH 4 relative to pH 7” value ([4]; Table 5) was “about 10 fold” and the “kind of action against H. pylori” value ([4]; found by measuring the MIC) was “not only bacteriostatic (i.e. inhibitory of growth), but also bactericidal”. The “minimum inhibitory concentration (MIC)” value ([4]; in vitro, Co^2+ as cobalt chloride) was 0.06 µg/mL, the “MIC, pH 4-7” value ([4]; pH 4-7: pH of the media changes during the experiment from acidic start) was 0.03-0.4 mg/l and the “MIC, pH 7” value ([4]; pH 7) was 0.06-0.4 mg/l. The “activity against the H. pylori strain deprived of its urease enzyme” value ([4]; urease-deprived strain) was “active”, the “MIC” value [5, 18] was over 32 µg/mL and the MIC, Staphylococcus (aureus or Oxford Staph) ([5]; Table 4) was over 32 µg/mL. For the same compound, the “MIC” value [6] was over 32 µg/mL, the “MIC” value [7, 18] was over 32 µg/mL and the MIC, Ent faecalis ([7]; Table 4) was over 32 µg/mL. For the same compound, the “MIC” value [8] was over 32 µg/mL, the “MIC” value [9, 18] was over 32 µg/mL and the MIC, Pseudomonas aeruginosa ([9]; Table 4) was over 32 µg/mL. For the same compound, the “MIC” value [10, 18] was over 32 µg/mL, the MIC, Klebsiella ([10]; Table 4) was over 32 µg/mL and the “MIC” value [11, 18] was over 32 µg/mL. The MIC, E. coli ([11]; Table 4) was over 32 µg/mL, the “activity (MIC) against other bacteria” value [12] was over 32 µg/mL and the “time to I50 (inhibition of 50% of the Helicobacter pylori inoculated)” value [13] was 5 h. For the same compound, the “time to total inhibition” value [13] was 8 h, the adverse effects [14] was “no reported adverse effects” and the “growth in the medium” value ([1]; Co 0.0015 mg/l, Ax 0 mg/l) was “+”. For the same compound, the “growth in the medium” value ([1]; Co 0.004 mg/l, Ax 0 mg/l) was “+”, the “growth in the medium” value ([1]; Co 0.008 mg/l, Ax 0 mg/l) was “+” and the “growth in the medium” value ([1]; Co 0.030 mg/l, Ax 0 mg/l) was “−”. For the same compound, the “growth in the medium” value ([1]; Co 0.060 mg/l, Ax 0 mg/l) was “−”, the “growth in the medium” value ([1]; Co 0.120 mg/l, Ax 0 mg/l) was “−” and the “MIC of cobalt (no amoxycillin)” value ([1]; no amoxycillin) was “MIC of cobalt (no amoxycillin): 0.030 mg/l”. For the same compound, the “MIC, E. coli (footnote a)” value [15] was 22.97^a, the “MIC, Pseudomonas aeruginosa (footnote a)” value [16] was 2.3^a and the “MIC, Staphylococcus (aureus or Oxford Staph) (footnote a)” value [17] was 22.97^a.
